Values quoted from earlier work in the CATMoS acute toxicity set (Mansouri et al. 2021).
“And” between values parts separate entries of the source, which are not always exact repeats. Equal values may be shown once.

Test: rat acute oral toxicity
Settings: in vivo

Compound	LD50
CCOc1ccccc1N1CCN(CCC=Cc2ccc3c(c2)CCC(=O)N3)CC1	500 mg/kg
CC1(C)[C@H](C=C2CCCC2)[C@H]1C(=O)OCc1coc(Cc2ccccc2)c1	63 mg/kg
Cc1ncc([N+](=O)[O-])n1CCO	3000 mg/kg
CS(=O)(=O)O	6170 mg/kg
Cc1[nH]nc(Cl)c1[N+](=O)[O-]	350 mg/kg
C=C(CO)C(=O)OCC	620 mg/kg
CCC1CN2CCC1CC2C(O)c1ccnc2ccc(OC)cc12 (stereo unspecified)	369 mg/kg
CNCC(O)c1ccc(OC(=O)C(C)(C)C)c(OC(=O)C(C)(C)C)c1 (stereo unspecified)	183 mg/kg
CCC(=O)O[C@]1(c2ccccc2)CCN(C)C[C@@H]1C	90 mg/kg
O=c1[nH]nc2n1-c1cc([N+](=O)[O-])cc([N+](=O)[O-])c1OC2	3690 mg/kg
CC(=O)OCCC(C)CC(C)(C)C (stereo unspecified)	4250 mg/kg
Cc1cccc2c1C(=O)C(c1c(Cl)cccc1Cl)C2=O (stereo unspecified)	466 mg/kg
Sc1c(Cl)c(Cl)c(Cl)c(Cl)c1Cl	11900 mg/kg
CC[Se][Se]CC	90 mg/kg
NC(=O)CC[C@H](N)C(=O)O	7500 mg/kg
COCC(C)N(C(=O)CCl)c1c(C)csc1C (stereo unspecified)	397 mg/kg
CCC(C(=O)N1CCCC1C)(c1ccccc1)c1ccccc1 (stereo unspecified)	326 mg/kg
CC(C)CCC(=O)O	2050 mg/kg
Cc1ccc(O)c(C2CCCCC2)c1	1870 mg/kg
NC(=O)OC[C@H](O)[C@@H](O)[C@H](N)C(=O)N[C@@H](C(=O)O)[C@H]1O[C@@H](n2cc(CO)c(=O)[nH]c2=O)[C@H](O)[C@@H]1O	14700 mg/kg
CC(C)(C)NCC(O)c1cc(Cl)c(N)c(C(F)(F)F)c1 (stereo unspecified)	306 mg/kg
O=C=Nc1ccc(Cl)c(C(F)(F)F)c1	500 mg/kg
CCC(C(=O)OCCOCCN(CC)CC)c1ccccc1 (stereo unspecified)	4160 mg/kg
O=C(O)CNCC(=O)O	8070 mg/kg
CC(C)N1C(=O)c2ccccc2NS1(=O)=O	1100 mg/kg
CCCCOC(=O)COc1cc(Cl)c(Cl)cc1Cl	481 mg/kg

Compound	LD50
CCC(=O)CC(C)CC (stereo unspecified)	3500 mg/kg
CN(C/C=C/C#CC(C)(C)C)Cc1cccc2ccccc12	4000 mg/kg
O=C(O)CC1(CO)CCCCC1	20 mg/kg
CC(=O)OC1CCCCC1	6730 mg/kg
CN(C)CCCn1c2ccccc2c(=O)c2c([N+](=O)[O-])cccc21	53.3 mg/kg
CCCCCCCCCCCC(=O)NP(=O)(OC)SC (stereo unspecified)	100 mg/kg
CCCc1ccccc1O	500 mg/kg
CCOC(C1=NCCCCN1)c1ccc(Cl)cc1 (stereo unspecified)	370 mg/kg
CC(=O)OCC(C)O (stereo unspecified)	18000 mg/kg
CCOCc1cnc(C)nc1N	1450 mg/kg
CCNC(=O)C(SP(=S)(OC)OC)C(=O)NCC	1000 mg/kg
CCCOC(=O)C1c2cc3c(cc2CC(C)C1C(=O)OCCC)OCO3 (stereo unspecified)	1500 mg/kg
Cc1ccccc1N(CCO)CCO	2200 mg/kg
O=C(O)CCCCCCI	2240 mg/kg
CCN(CC)C(=O)Cl	2700 mg/kg
CCOc1cc(Cc2cnc(N)nc2N)cc(OCC)c1-n1cccc1	1420 mg/kg
FC(F)(F)C(=NOCC1OCCO1)c1ccc(Cl)cc1	669 mg/kg
CNCCC=C1c2ccccc2CCc2ccccc21	502 mg/kg and 405 mg/kg
COc1ccc2cc([C@H](C)C(=O)OCCN3CCN(Cc4ccc(N)cc4)CC3)ccc2c1	1600 mg/kg
COC(F)(F)C(Cl)Cl	3600 mg/kg
O=[N+]([O-])c1cncn1CCN1CCOCC1	1540 mg/kg
Cn1c(=O)c2c(ncn2CCCCN2CCN(c3ccc(Cl)cc3)CC2)n(C)c1=O	505 mg/kg
N#Cc1ccccc1C#N	30 mg/kg
COCCOC(=O)CCCCCCCCC(=O)OCCOC	4970 mg/kg
CCCOP(=S)(OCCC)SCC(=O)N1CCCCC1C (stereo unspecified)	324 mg/kg
CC(C)(C)[C@@H](O)/C(=C\c1ccc(Cl)cc1Cl)n1cncn1	474 mg/kg

Compound	LD50
CC(C)(C)c1cc(C=C(C#N)C#N)cc(C(C)(C)C)c1O	87 mg/kg
Cc1c(-c2ccccc2)oc2c(C(=O)O)cccc2c1=O	1660 mg/kg
C[C@@H]1C[C@H]2[C@@H]3C[C@H](F)C4=CC(=O)C=C[C@]4(C)[C@H]3[C@@H](O)C[C@]2(C)[C@H]1C(=O)CO	245 mg/kg
C=COCC(C)CCCC(C)CC(C)C (stereo unspecified)	1220 mg/kg
Cc1cc(-n2c(C)nc3ccccc3c2=O)n(-c2ccccc2)n1	1800 mg/kg
COP(=O)(OC)SCCSC	20 mg/kg
COCN(C)N=O	700 mg/kg
CC(C=O)c1ccccc1 (stereo unspecified)	2800 mg/kg
CC1(CCl)COC1	1120 mg/kg
CCS(=O)Cc1ccccc1OC(=O)NC (stereo unspecified)	150 mg/kg
CC(CC(=O)O)CC(C)(C)C (stereo unspecified)	1160 mg/kg
CCCCCCCCOC(C)=O	3000 mg/kg
COP(N)(=S)OC	410 mg/kg
ClC1=C(Cl)C2(Cl)C3C4OC4C(Cl)C3C1(Cl)C2(Cl)Cl (stereo unspecified)	15 mg/kg
CCC[C@]1(c2cccc(O)c2)CCN(C)C[C@@H]1C	887 mg/kg
Nc1cccc2c(Cl)ccc(Cl)c12	3490 mg/kg
Cc1ccccc1C1OCC(O)CO1 (mixture of isomers)	3400 mg/kg
c1ccc(-c2nnn[nH]2)cc1	1900 mg/kg
NC(N)=Nc1nc(CSCCC(N)=NS(N)(=O)=O)cs1	4050 mg/kg
FC(F)(F)C(Cl)Br (stereo unspecified)	5680 mg/kg
CCC(=O)OC(=O)CC	2360 mg/kg
Cc1cccc(Cl)c1NC(=O)/C=C1\SCC(=O)N1C	1350 mg/kg
C1C2OC2C2C1C1CC2C2OC12 (stereo unspecified)	210 mg/kg
OCCN1CCN(CCC=C2c3ccccc3Sc3ccc(C(F)(F)F)cc32)CC1	791 mg/kg
CCN(CCCOS(C)(=O)=O)CCCOS(C)(=O)=O	375 mg/kg
CCC(C)(C)/N=C(\NC#N)Nc1cccnc1	14 mg/kg

Compound	LD50
CCCOP(=O)(OCCC)Oc1cnn(C)c(=O)c1OC	15 mg/kg
CN(C)P(=O)(N(C)C)N(C)C	2650 mg/kg
CC(=NOC(=O)N(C)SSN(C)C(=O)ON=C(C)SCCC#N)SCCC#N	80 mg/kg
C=CCC(CC=C)C(=O)O	570 mg/kg
CC(C)(C)CC1(C)CO1 (stereo unspecified)	4920 mg/kg
C=CC(C)(O)CCCCC (stereo unspecified)	1800 mg/kg
C=COCCOC(=O)C(=C)C	5940 mg/kg
ClC(Cl)(Cl)Sn1cccn1	350 mg/kg
O=c1[nH]c2ccccc2n1CCCN1CCN(C(c2ccccc2)c2ccccc2)CC1	1410 mg/kg
CCCC(=O)c1ccc2c(c1)N(CCCN1CCOCC1)c1ccccc1S2	3500 mg/kg
CCOP(=O)(OCC)SCCSCC	1.5 mg/kg
C[N+](C)(C)CC(O)CC(=O)O (stereo unspecified)	6890 mg/kg
CCOP(=S)(OCC)SCn1nc(CC)ccc1=O	18.8 mg/kg
Nc1ccc(Br)cc1	456 mg/kg
O=C1OC2(c3ccc(O)cc3Oc3cc(O)ccc32)c2ccccc21	6720 mg/kg
COP(=O)(NC(=O)CCCCl)SC (stereo unspecified)	3 mg/kg
CC(=O)OCCCl	10 mg/kg
Cc1ccc(N2C(=O)C=CC2=O)cc1	710 mg/kg
CC12CCC3(CCCC(C)(C)C3C1)OC2=O (stereo unspecified)	1600 mg/kg
C(=Nc1ccccc1)Nc1ccccc1	1900 mg/kg
CN1CCN(C2=Cc3ccccc3Sc3ccc(Cl)cc32)CC1	115 mg/kg
O=S(=O)(O)c1cc(Cl)ccc1C=Cc1ccc(-n2nc3ccc4c(S(=O)(=O)O)cccc4c3n2)cc1S(=O)(=O)O	19900 mg/kg
Fc1c(Br)c(F)c2nc(C(F)(F)F)[nH]c2c1Br	7.23 mg/kg
COP(=S)(OC)Oc1cc(C)c(SC)c(C)c1	1000 mg/kg
CCN1CCCC1CNS(=O)(=O)c1cc(Cl)c(N)cc1OC (stereo unspecified)	1500 mg/kg
CCOP(=O)(OCC)SCCC(F)=C(F)F	68 mg/kg

Compound	LD50
CC(=O)O	3250 mg/kg
CC(C)(Oc1ccc(C(=O)c2ccc(Cl)cc2)cc1)C(=O)O	1240 mg/kg
O=c1[nH]c2cc(Cl)c(Br)cc2o1	500 mg/kg
CN1CCN(CCC=C2c3ccccc3Sc3ccc(S(=O)(=O)N(C)C)cc32)CC1	720 mg/kg
CCCCOC(=O)c1ccccc1Nc1cccc(C(F)(F)F)c1	510 mg/kg
CC(C)(C)NCC(O)CSc1nc(-c2ccc(C(N)=O)s2)cs1 (stereo unspecified)	86 mg/kg
CNc1nc(C)nc(OC)n1	394 mg/kg
CC(=O)Nc1ccc2c(c1)sc1ccccc12	1200 mg/kg
CCCCNC1(P(=O)(OCCCC)OCCCC)CCCCC1	3000 mg/kg
O=S(=O)(O)c1cc(O)ccc1O	7500 mg/kg
CC(C)=CC1C(C(=O)Cl)C1(C)C (stereo unspecified)	400 mg/kg
O=C1NCc2ccccc2O1	1050 mg/kg
COc1c(Cl)cc(Cl)c(Cl)c1C(=O)O	300 mg/kg
COc1ccc(C=Nc2c(C)n(C)n(-c3ccccc3)c2=O)cc1	10000 mg/kg
CC(C)=CCCC(C)CC(=O)O (stereo unspecified)	2610 mg/kg
Nc1ccc2c(S(=O)(=O)O)cccc2c1S(=O)(=O)O	5430 mg/kg
C[C@H](O)[C@H](O)[C@H]1CNc2[nH]c(N)nc(=O)c2N1	1000 mg/kg
CCCCc1ccc2c(S(=O)(=O)O)cc(CCCC)cc2c1	1250 mg/kg
CCC(=O)O[C@](Cc1ccccc1)(c1ccccc1)[C@H](C)CN(C)C	84 mg/kg
CCCCOC(CBr)c1ccccc1 (stereo unspecified)	250 mg/kg
CC1NCCOC1c1ccccc1 (stereo unspecified)	370 mg/kg and 165 mg/kg
CCCCCCCCCCCCCO	17200 mg/kg
C(=NCCCCCCN=Cc1ccco1)c1ccco1	490 mg/kg
Nc1ccc2cc(S(=O)(=O)O)c(/N=N/c3ccc(-c4ccc(/N=N/c5c(S(=O)(=O)O)cc6cc(S(=O)(=O)O)cc(N)c6c5O)cc4)cc3)c(O)c2c1	6450 mg/kg
CC(C)CCI	1420 mg/kg
CCOc1ccc(C(=O)NCc2ccc(OCCNC)cc2)cc1OCC	3000 mg/kg

Compound	LD50
[2H]C([2H])([2H])N(COC(C)=O)N=O	120 mg/kg
CC(C)C(=O)OCCc1ccccc1	5200 mg/kg
Clc1ccc(SCOC(Cn2ccnc2)c2ccc(Cl)cc2Cl)cc1 (stereo unspecified)	3850 mg/kg
CCN(CC)CCOC(=O)CC(O)(c1ccccc1)c1ccccc1	2310 mg/kg
CCC(O)CCO (stereo unspecified)	20000 mg/kg
Cc1ccc(Cl)c(Nc2ccccc2C(=O)O)c1Cl	100 mg/kg
CCOP(=S)(OCC)SCn1nc(Br)ccc1=O	30 mg/kg
CCCCP(CCCC)CCCC	750 mg/kg
O=C1C(CCSc2ccccc2)C(=O)N(c2ccccc2)N1c1ccccc1	450 mg/kg
CCOP(=S)(OCC)Oc1ccc(N=C=S)cc1	251 mg/kg
CCCCCCCCN1CCCC1=O	2050 mg/kg
CCOC(=O)c1ccc(N)cc1	3040 mg/kg
C=CCC(CC)(CC)C(N)=O	400 mg/kg
CNCCCN1c2ccccc2CCc2ccccc21	375 mg/kg and 871 mg/kg
CCCCCCCCCCF	5 mg/kg
CCC1CCC(C)NC1 (stereo unspecified)	540 mg/kg
C=CCc1ccc(OC=O)c(OC)c1	3400 mg/kg
c1ccc2c(c1)CCCC2	2860 mg/kg
CN(C)c1nc(N(C)C)nc(N(C)C)n1	350 mg/kg
NC(=S)NC(=S)Nc1ccccc1	250 mg/kg
COP(=S)(OC)Oc1ccc([N+](=O)[O-])c(C(F)(F)F)c1	250 mg/kg
